These results are taken from article PMC12430443, “Discovery of Novel Benzamide-Based Sigma-1 Receptor Agonists with Enhanced Selectivity and Safety” (Molecules, 2025).

For orientation: IC50 means the point on the concentration scale where inhibition reaches its midpoint. In general, Ki refers to the dissociation constant of the complex between target and ligand, obtained from inhibition or displacement. Higher therefore signals lower affinity.

A value given as a limit tells only on which side of the number the result lay.

One series deals with Caco-2 cell line. Also noted: method as in PMID 36233193. The conditions noted are these: 10 µM, cited from earlier work.
The target in a further series is T1, S2R (Homo sapiens, UniProt Q5BJF2).
T1 construct: For the S2R assay, Jurkat cell membranes (10–20 μg protein/tube) were incubated at room temperature for 1 h; host or cells: Jurkat cell membranes
T1 sequence (Q5BJF2 whole entry): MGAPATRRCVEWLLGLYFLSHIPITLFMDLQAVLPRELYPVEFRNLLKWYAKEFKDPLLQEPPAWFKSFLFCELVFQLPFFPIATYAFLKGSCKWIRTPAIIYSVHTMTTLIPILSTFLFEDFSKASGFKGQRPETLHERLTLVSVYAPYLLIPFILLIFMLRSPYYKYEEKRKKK
Nature of the series: S2R competitive radioligand binding, [3H]-DTG with excess (+)-pentazocine, Jurkat cell membranes. The source says: (§1) S1R and S2R affinities were classically evaluated through competitive binding assays using radioligands, following the protocol described by Ganapathy et al.. The selective radioligand [^3H] (+)-pentazocine was employed as the classic prototypical ligand, selectively binding to the orthosteric S1R-binding sites. […] Jurkat cell membranes served as the receptor source in both assays. The equilibrium dissociation constants (Ki) for S1R and S2R were derived from the IC50 values of each compound, and selectivity ratios (S2R/S1R) were subsequently calculated (Table 1, Figures S2 and S3).
(§2) Binding assays were performed by Eurofins Cerep (Poitiers, France) according to the protocol of Ganapathy. […] For the S2R assay, Jurkat cell membranes (10–20 μg protein/tube) were incubated at room temperature for 1 h in the same buffer with [^3H]-DTG (25 nM) in the presence of (+)-pentazocine (1 μM) to saturate S1R, along with a range of test compound concentrations. Bound radioactivity was quantified by liquid scintillation counting. Nonspecific binding was determined under identical conditions in the presence of 10 μM unlabeled haloperidol. The IC50 values (concentration causing a half-maximal inhibition of control-specific binding) and Hill coefficients (nH) were determined by non-linear regression analysis of the competition curves generated with mean replicate values using Hill equation curve-fitting. This analysis was performed using software developed at Cerep (Hill software) and validated by comparison with data generated by the commercial software SigmaPlot ®4.0 for Windows® (©1997 by SPSS Inc.). Inhibition constants (Ki) were calculated from IC50 values using the method of Cheng and Prusoff.

The target of the next series is MRP2 (Homo sapiens, UniProt Q92887). Also on record: method as in PMID 36233193. The note with it: at 10 µM; ABC family; cited from earlier work.
MRP2, sequence (Q92887 whole entry): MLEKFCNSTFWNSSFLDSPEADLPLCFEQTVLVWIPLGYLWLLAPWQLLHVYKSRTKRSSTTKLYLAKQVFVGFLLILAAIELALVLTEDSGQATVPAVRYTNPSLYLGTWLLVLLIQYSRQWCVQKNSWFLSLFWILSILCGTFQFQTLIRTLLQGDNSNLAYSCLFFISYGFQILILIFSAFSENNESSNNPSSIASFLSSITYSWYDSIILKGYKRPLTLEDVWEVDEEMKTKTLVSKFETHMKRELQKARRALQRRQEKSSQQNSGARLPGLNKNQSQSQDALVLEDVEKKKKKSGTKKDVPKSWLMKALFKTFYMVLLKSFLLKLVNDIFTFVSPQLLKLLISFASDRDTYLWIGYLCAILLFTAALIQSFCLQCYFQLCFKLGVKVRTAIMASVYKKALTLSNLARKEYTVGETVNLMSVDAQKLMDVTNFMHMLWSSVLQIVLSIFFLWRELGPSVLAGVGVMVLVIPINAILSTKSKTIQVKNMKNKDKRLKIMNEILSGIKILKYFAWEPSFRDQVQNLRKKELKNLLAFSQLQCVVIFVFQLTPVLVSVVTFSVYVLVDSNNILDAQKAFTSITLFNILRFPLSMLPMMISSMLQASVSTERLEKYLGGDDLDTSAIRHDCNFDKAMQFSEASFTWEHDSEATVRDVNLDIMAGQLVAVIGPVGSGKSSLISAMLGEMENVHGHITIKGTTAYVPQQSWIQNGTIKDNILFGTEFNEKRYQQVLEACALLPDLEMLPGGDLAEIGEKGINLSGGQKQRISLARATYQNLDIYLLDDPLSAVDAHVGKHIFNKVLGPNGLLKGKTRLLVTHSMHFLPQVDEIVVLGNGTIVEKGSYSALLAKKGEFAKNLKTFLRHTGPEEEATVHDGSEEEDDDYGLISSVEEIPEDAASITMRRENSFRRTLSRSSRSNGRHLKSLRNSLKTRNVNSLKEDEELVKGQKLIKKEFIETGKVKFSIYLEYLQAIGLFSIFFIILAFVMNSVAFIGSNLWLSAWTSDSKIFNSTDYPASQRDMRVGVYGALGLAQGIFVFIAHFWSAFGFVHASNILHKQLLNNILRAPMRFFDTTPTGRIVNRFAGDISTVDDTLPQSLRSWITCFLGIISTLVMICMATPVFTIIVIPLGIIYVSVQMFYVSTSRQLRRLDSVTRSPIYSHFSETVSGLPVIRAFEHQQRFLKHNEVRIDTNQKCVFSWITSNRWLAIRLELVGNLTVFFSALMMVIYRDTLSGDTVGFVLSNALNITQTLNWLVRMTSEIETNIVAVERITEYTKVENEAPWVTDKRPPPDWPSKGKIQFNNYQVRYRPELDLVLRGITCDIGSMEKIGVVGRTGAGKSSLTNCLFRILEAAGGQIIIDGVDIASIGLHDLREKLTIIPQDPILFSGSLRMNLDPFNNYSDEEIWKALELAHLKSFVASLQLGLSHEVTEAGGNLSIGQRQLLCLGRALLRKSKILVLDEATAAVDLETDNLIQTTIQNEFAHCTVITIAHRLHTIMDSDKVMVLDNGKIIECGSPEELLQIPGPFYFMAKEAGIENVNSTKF
Details of series [1]: method as in PMID 36233193. The note with it: cited from earlier work.
The test system of a further series is CYP1A. Also noted: method as in PMID 36233193. The conditions noted are these: at 10 µM; cited from earlier work.
A further series concerns the target T2, hERG channel (Homo sapiens, UniProt Q12809).
T2 construct: host or cells: CHO-K1
Also noted: method as in PMID 36233193. The note with it: ratio; cited from earlier work.

Details of series [2]: method as in PMID 36233193. The conditions noted are these: 10 µM; cited from earlier work.
Another series concerns the target muscarinic M1 receptor (Homo sapiens, UniProt P11229). Also noted: method as in PMID 11897056. The note with it: 10 µM; cited from earlier work.
The nature of series [3]: Cytotoxicity, MTT/MTS assay. It counts as cell-based, human. The note with it: human, SH-SY5Y neuroblastoma cells; percentage of cell death after 24 h treatment at 100 µM (duplicate); read-out: SY5Y % Cytotox. As to the method:
(§3) To assess potential cytotoxicity in CNS-relevant cells, human neuroblastoma (SH-SY5Y) cells were exposed to compounds 2–7 at concentrations up to 100 μM. Cell viability was measured using the MTT assay.
(§4) Cytotoxicity was assessed in human SH-SY5Y neuroblastoma cells cultured in Dulbecco’s Modified Eagle Medium (DMEM, Gibco, Thermo Fisher Scientific Inc., Waltham, MA, USA) supplemented with 2 mM L-glutamine, 100 μg/mL streptomycin, 100 IU/mL penicillin, 1 mM non-essential amino acids (all from Invitrogen, Thermo Fisher Scientific Inc., Waltham, MA, USA), and 10% (v/v) heat-inactivated fetal bovine serum (Sigma-Aldrich, Burlington, MA, USA). Cells were maintained at 37 °C in a humidified 5% CO2 atmosphere and serum-starved for 24 h to synchronize cultures before treatment with the test compounds at final concentrations of 100, 50, 10, 5, 1, 0.5, 0.1, or 0.05 μM (all in <0.1% DMSO). […] Absorbance was measured at 490 nm, and the results were expressed as a percentage relative to untreated control cells (set at 100%).
A general note: Formazan colour is commonly taken as a measure of viable cells.

Series [4] concerns SH-SY5Y neuroblastoma cells. Nature of the series: Cytotoxicity, MTT/MTS assay. It counts as cell-based, human. The conditions noted are these: selectivity index; IC50 was considered > 100 µM. As to the method:
as §3, §4

On the set-up of series [5]: method as in PMID 36233193. The conditions noted are these: 10 µM; cited from earlier work. The source holds these as a separate data set.
For the next series, the target named is T3, CYP2C19 (Homo sapiens, UniProt P33261).
T3 construct: tissue Eurofins Cerep (assay provider); host or cells: human liver microsomes
T3 sequence (P33261 whole entry): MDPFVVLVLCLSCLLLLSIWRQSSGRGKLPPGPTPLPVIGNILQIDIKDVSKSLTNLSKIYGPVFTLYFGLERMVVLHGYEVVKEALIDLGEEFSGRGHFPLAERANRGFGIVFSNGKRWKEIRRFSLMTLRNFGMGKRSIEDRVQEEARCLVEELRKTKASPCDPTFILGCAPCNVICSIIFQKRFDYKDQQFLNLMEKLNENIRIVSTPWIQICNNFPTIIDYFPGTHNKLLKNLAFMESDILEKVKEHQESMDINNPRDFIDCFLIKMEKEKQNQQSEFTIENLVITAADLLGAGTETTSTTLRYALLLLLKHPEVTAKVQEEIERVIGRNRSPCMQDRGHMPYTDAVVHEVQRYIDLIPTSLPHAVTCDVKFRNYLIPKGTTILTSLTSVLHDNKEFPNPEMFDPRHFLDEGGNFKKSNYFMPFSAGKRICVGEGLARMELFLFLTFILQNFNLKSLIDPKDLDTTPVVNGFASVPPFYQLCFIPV
Also noted: method as in PMID 36233193. The conditions noted are these: at 10 µM; cited from earlier work.

The next series deals with histamine H1 receptor (Homo sapiens, UniProt P35367). Also noted: method as in PMID 11897056. The conditions noted are these: 10 µM; cited from earlier work.
histamine H1 receptor, sequence (P35367 whole entry): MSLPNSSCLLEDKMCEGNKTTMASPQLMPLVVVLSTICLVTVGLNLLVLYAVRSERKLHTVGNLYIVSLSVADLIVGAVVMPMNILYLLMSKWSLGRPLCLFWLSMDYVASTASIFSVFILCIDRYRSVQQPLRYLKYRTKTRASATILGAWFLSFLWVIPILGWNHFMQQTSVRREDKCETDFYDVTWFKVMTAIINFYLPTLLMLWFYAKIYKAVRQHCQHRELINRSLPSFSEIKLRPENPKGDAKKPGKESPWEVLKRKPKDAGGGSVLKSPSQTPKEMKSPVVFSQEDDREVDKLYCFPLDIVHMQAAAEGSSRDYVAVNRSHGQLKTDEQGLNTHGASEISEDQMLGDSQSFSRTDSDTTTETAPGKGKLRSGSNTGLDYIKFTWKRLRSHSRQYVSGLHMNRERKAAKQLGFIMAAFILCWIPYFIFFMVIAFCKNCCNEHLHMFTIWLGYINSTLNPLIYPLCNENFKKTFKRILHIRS
The target of a further series is T4, S1R (Homo sapiens, UniProt Q99720).
T4 construct: For the S1R assay, Jurkat cell membranes (10–20 μg protein/tube) were incubated at 37 °C for 2 h; host or cells: Jurkat cell membranes
T4 sequence (Q99720 whole entry): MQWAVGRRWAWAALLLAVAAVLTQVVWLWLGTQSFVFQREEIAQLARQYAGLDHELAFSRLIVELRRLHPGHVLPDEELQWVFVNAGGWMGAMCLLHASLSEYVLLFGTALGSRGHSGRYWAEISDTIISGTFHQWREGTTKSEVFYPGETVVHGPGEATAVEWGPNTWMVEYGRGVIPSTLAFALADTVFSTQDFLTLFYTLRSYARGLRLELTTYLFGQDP
Kind of series: S1R competitive radioligand binding, [3H](+)-pentazocine, Jurkat cell membranes. The note with it: Jurkat cell membranes.
Description: as §1, §2

The subject of a further series is CYP3A. Also noted: method as in PMID 36233193. The note with it: at 10 µM; cited from earlier work.

muscarinic M1 receptor, sequence (P11229 whole entry): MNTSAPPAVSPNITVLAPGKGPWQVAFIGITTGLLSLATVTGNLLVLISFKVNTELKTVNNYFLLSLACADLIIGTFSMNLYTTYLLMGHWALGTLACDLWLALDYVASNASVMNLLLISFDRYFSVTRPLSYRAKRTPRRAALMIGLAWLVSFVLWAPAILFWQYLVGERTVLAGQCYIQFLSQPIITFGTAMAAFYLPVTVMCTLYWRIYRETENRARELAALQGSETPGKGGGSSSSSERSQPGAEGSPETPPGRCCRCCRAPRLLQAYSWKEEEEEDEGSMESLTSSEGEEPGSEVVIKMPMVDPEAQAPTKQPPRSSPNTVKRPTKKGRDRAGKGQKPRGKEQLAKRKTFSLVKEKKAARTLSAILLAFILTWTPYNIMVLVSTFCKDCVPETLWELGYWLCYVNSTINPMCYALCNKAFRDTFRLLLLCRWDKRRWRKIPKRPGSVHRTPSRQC
T2 sequence (Q12809 whole entry): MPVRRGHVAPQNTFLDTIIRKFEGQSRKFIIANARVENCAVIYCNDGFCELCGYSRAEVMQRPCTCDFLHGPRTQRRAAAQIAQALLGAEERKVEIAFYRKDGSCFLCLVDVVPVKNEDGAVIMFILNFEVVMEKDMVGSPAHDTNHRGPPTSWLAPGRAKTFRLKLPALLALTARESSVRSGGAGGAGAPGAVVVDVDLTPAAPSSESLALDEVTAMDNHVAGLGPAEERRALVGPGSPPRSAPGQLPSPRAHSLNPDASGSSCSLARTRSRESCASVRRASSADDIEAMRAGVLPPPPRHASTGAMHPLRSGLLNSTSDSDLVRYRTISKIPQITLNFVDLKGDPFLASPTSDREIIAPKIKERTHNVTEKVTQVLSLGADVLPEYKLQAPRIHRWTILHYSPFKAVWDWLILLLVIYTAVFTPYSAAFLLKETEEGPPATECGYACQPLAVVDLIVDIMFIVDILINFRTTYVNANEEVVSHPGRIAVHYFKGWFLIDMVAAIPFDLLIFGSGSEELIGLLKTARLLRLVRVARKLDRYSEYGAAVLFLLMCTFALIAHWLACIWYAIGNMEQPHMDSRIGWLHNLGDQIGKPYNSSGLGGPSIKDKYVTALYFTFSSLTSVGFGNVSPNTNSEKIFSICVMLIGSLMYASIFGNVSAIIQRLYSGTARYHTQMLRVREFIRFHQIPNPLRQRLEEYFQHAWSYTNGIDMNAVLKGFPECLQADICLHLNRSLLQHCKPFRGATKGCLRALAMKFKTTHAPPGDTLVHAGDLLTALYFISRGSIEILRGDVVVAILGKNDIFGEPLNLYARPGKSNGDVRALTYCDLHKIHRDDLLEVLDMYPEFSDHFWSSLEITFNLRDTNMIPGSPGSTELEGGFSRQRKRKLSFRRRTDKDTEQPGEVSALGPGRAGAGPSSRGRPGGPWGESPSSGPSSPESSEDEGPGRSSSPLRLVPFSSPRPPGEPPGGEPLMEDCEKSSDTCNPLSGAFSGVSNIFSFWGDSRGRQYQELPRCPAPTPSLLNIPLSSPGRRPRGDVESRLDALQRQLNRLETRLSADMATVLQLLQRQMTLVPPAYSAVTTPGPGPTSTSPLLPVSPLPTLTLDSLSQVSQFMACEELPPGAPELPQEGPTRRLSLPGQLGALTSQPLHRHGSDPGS

Turning to `CN(CCCNC(=O)c1ccc(Cl)cc1)Cc1ccccc1` [Compound 1], in the series on Caco-2 cell line (Caco-2), the “Permeability A/B pH7.4/7.4” value is listed as 29.1 ×10^−6 cm/s. In the series on Caco-2 cell line (Caco-2), the “Permeability B/A pH7.4/7.4” value is recorded as 66.1 ×10^−6 cm/s. Further, the e-ratio with Caco-2 cell line (efflux ratio Papp(B→A)/Papp(A→B)) is 2.3. The IC50 on S2R ([3H]-DTG displacement with excess (+)-pentazocine, n = 2) amounted to 255 nM; on S1R ([3H]-(+)-pentazocine displacement, n = 2) it was 6.3 nM. For the same molecule, the Ki on S2R ([3H]-DTG with (+)-pentazocine, mean of 2–3 independent experiments) worked out at 190 nM; on S1R ([3H](+)-pentazocine, mean of 2–3 independent experiments), 3.2 nM. Moreover, the “Drug transport inhibition MRP2” value at MRP2 is given as −18.6%. The “Mouse plasma t1/2” value in [1] is recorded as 25.9 h. Moreover, the “CYP inhibition 1A” value in the series on CYP1A is 2.1%. For the same molecule, the “IC50 (hERG)/Ki (σ1)” value on hERG channel is on record as 312. In addition, in [2], the “Human liver microsome half-life t1/2” value was more than 1 h. Besides, the “M1 antagonist activity (in words)” value at muscarinic M1 receptor is reported as “antagonist activity”. For the same molecule, the cytotoxicity at 24 h, 100 µM in series [3] was 28%. The “IC50 (SY5Y)/ Ki (S1R)” value in series [4] is on record as >31,250. In series [5], the Plasma protein binding was 94%. The “CYP inhibition 2C19” value at CYP2C19 is given as 36.2%. Also, the “H1 activity (in words)” value at histamine H1 receptor was “no activity”. Also, the “CYP inhibition 3A” value in the series with CYP3A is given as 36.9%.
